In patent publication US20160326558A1, “Process for Stimulating Hyaluronic Acid Production with Ascorbic Acid Derivatives and the Composition Thereof” (CORUM INC., priority 2012, published 2016):
Where “and” joins values, the source holds several entries; their conditions need not be identical. Identical values can stand only once.

Test system: mouse fibroblast (3T3)
Experiment: Stimulating hyaluronic acid production in mouse fibroblast, Echelon HA-ELISA (Example 1)
Type: cell-based
Description: Cell Line: 3T3 (BCRC 60071, purchased from Bioresource Collection and Research Center) Complete Medium (as positive control): DMEM medium with 10% Fetal Bovine Serum (DMEM purchased from Corning Incorporated and Caisson Labs; FBS purchased from Caisson Labs) Starvation Medium (as negative control): DMEM medium with 0.1% Bovine Serum (DMEM purchased from Corning Incorporated and Caisson Labs; FBS purchased from Caisson Labs) Hyaluronan Enzyme-Linked Immunosorbent Assay Kit (HA-ELISA) (Brand: Echelon/Cat No K-1200) Complete medium is used in cell seeding stage. The confluent 3T3 cells are rinsed with sterile D-PBS, and trypsinize all cells and perform cell counting. Then, dilute the cell density to 4E+04/mL and seed 0.5 mL cell liquid (equals to 2E+04 cells) each well in 24 well plates. Incubate 3T3 cells at 37° C., 5% CO2 for about 24 hours. Starvation medium is used in this stage. The 24-hour-cultured 3T3 cells are rinsed with sterile D-PBS and discarded rinse buffer. Controls and testing materials in different concentrations are respectively added into the 3T3 cells in 24 well plates. Then, the 3T3 cells are incubated at 37° C., with 5% CO2 for about 72 hours. After incubating for about 72 hours, transfer some supernatant of cells treated with controls and testing materials into new containers. Centrifuge the supernatants at 2000 rpm for 5˜10 minutes. The hyaluronic acid content of the centrifuged supernatants are respectively determined by Hyaluronan Enzyme-Linked Immunosorbent Assay Kit, and calculated with the following Formula 1. [formula]

[1] = 5000 ppm, 72 h, vs negative control = 100%

## CCOC1=C(O)C(=O)O[C@@H]1[C@@H](O)CO [3-O-ethyl-ascorbic acid]
10-5000 ppm
  stimulated hyaluronic acid production (in words): efficiently increased
10 ppm, 72 h, vs negative control = 100%
  Hyaluronic Acid Content Stimulated, Average: 164.6%
100 ppm, 72 h, vs negative control = 100%
  Hyaluronic Acid Content Stimulated, Average: 133.1%
1000 ppm, 72 h, vs negative control = 100%
  Hyaluronic Acid Content Stimulated, Average: 148.9%
2500 ppm, 72 h, vs negative control = 100%
  Hyaluronic Acid Content Stimulated, Average: 165.0%
[1]
  Hyaluronic Acid Content Stimulated, Average: 149.0%
  Hyaluronic Acid Content Stimulated, single entries: 110.3% and 214.1% and 161.9% and 109.6%
7500 ppm, 72 h, vs negative control = 100%
  Hyaluronic Acid Content Stimulated, Average: 91.0%
10000 ppm, 72 h, vs negative control = 100%
  Hyaluronic Acid Content Stimulated, Average: 89.4%
